Measured values from the kinase profiling compilation of Christmann-Franck et al. (2016).

Assays:
Conditions in all cases: compound 10.0 µM
IRAK1 (human) = IRAK1 (human) (UniProt P51617)
IKBKE (human) = IKBKE (human) (UniProt Q14164)
MYLK (human) = MYLK (human) (UniProt Q15746)
JAK3 JH1 JH2 (human) = JAK3 JH1 JH2 (human) (UniProt P52333)
DYRK3 (human) = DYRK3 (human) (UniProt O43781)
STK4 (human) = STK4 (human) (UniProt Q13043)
STK25 (human) = STK25 (human) (UniProt O00506)
PRKCA (human) = PRKCA (human) (UniProt P17252)
EGFR (human) = EGFR (human) (UniProt P00533)
PAK6 (human) = PAK6 (human) (UniProt Q9NQU5)
EPHA5 (human) = EPHA5 (human) (UniProt P54756)
GSK3B (human) = GSK3B (human) (UniProt P49841)
GSK3B (human), sequence (P49841 whole entry, looked up): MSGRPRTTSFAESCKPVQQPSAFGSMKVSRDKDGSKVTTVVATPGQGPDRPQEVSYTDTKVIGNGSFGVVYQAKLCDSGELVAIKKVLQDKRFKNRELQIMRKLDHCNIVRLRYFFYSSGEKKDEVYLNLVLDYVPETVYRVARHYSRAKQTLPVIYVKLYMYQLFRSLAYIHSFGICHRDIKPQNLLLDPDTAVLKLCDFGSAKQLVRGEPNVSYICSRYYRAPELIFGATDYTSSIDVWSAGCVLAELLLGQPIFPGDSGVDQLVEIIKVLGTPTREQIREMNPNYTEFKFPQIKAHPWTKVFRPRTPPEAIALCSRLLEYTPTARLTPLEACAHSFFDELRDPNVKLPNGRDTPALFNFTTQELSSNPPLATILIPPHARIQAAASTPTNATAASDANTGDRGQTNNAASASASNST

NEK6 (human) = NEK6 (human) (UniProt Q9HC98)
SRPK2 (human) = SRPK2 (human) (UniProt P78362)
PAK7 (human) = PAK7 (human) (UniProt Q9P286)
MAP3K10 (human) = MAP3K10 (human) (UniProt Q02779)
GSG2 (human) = GSG2 (human) (UniProt Q8TF76)
LIMK1 (human) = LIMK1 (human) (UniProt P53667)
EPHA6 (human) = EPHA6 (human) (UniProt Q9UF33)
TEC (human) = TEC (human) (UniProt P42680)
ACVR1B (human) = ACVR1B (human) (UniProt P36896)
YES1 (human) = YES1 (human) (UniProt P07947)
EPHA8 (human) = EPHA8 (human) (UniProt P29322)
PLK1 (human) = PLK1 (human) (UniProt P53350)
RPS6KB2 (human) = RPS6KB2 (human) (UniProt Q9UBS0)
HIPK4 (human) = HIPK4 (human) (UniProt Q8NE63)
CLK3 (human) = CLK3 (human) (UniProt P49761)
PRKCH (human) = PRKCH (human) (UniProt P24723)
IGF1R (human) = IGF1R (human) (UniProt P08069)
TTK (human) = TTK (human) (UniProt P33981)
MAP2K6 (human) = MAP2K6 (human) (UniProt P52564)
MAP2K6 (human), sequence (P52564 whole entry, looked up): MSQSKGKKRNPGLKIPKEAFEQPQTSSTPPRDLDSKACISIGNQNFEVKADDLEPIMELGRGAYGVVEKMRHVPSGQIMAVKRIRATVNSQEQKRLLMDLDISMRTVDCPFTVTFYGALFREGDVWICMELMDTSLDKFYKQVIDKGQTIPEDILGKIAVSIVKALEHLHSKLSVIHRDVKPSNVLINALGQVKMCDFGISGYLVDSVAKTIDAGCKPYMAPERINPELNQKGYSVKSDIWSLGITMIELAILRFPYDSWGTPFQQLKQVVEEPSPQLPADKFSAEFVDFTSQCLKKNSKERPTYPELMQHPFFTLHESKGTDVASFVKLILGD

TXK (human) = TXK (human) (UniProt P42681)
TXK (human), sequence (P42681 whole entry, looked up): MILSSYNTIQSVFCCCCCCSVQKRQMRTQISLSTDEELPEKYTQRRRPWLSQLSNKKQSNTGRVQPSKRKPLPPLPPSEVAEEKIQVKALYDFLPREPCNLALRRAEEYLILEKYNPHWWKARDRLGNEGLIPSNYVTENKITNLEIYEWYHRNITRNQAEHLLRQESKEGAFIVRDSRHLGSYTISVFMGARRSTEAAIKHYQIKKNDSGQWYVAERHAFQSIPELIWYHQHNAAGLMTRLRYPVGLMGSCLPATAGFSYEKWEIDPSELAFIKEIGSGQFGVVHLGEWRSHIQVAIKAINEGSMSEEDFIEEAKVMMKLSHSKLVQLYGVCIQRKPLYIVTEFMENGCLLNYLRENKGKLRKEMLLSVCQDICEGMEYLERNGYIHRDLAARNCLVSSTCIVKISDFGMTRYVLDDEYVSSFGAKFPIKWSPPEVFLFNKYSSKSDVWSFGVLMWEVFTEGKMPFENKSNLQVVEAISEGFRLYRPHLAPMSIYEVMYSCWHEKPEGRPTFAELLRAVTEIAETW

RPS6KA1 KD1 KD2 (human) = RPS6KA1 KD1 KD2 (human) (UniProt Q15418)
RPS6KA1 KD1 KD2 (human), sequence (Q15418 whole entry, looked up): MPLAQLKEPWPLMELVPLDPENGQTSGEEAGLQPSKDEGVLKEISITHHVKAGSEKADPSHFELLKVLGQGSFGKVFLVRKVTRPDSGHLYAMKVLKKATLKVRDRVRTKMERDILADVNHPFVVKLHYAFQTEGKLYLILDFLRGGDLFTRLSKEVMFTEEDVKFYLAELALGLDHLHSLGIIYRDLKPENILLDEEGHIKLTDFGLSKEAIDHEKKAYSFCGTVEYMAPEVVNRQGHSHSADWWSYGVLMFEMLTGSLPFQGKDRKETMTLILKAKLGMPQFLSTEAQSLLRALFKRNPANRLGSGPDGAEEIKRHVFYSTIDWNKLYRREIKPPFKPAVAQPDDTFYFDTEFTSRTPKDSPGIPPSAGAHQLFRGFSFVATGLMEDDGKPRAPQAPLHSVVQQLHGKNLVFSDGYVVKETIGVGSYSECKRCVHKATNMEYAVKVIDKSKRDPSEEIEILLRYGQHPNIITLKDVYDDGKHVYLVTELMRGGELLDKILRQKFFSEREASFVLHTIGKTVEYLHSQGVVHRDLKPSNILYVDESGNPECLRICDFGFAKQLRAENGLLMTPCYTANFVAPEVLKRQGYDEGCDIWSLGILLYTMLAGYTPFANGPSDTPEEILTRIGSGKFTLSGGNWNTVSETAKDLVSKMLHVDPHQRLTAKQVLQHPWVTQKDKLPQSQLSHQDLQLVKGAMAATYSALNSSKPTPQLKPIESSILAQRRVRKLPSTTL

TYRO3 (human) = TYRO3 (human) (UniProt Q06418)
HCK (human) = HCK (human) (UniProt P08631)
NEK3 (human) = NEK3 (human) (UniProt P51956)
NEK3 (human), sequence (P51956 whole entry, looked up): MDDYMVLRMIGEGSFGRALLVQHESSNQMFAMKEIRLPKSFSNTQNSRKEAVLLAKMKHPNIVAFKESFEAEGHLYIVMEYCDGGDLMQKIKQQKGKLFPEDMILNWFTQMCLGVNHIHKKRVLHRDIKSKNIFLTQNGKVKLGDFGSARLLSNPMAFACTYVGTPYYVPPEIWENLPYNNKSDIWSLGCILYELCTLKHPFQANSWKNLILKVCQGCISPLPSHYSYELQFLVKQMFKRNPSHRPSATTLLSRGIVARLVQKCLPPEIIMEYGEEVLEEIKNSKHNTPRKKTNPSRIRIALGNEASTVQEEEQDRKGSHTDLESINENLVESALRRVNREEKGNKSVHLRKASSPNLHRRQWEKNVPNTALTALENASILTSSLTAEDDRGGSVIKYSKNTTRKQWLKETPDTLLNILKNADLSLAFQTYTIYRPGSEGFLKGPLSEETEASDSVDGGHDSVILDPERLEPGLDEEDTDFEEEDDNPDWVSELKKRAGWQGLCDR

ROCK2 (human) = ROCK2 (human) (UniProt O75116)
STK16 (human) = STK16 (human) (UniProt O75716)
PRKCD (human) = PRKCD (human) (UniProt Q05655)
PRKCD (human), sequence (Q05655 whole entry, looked up): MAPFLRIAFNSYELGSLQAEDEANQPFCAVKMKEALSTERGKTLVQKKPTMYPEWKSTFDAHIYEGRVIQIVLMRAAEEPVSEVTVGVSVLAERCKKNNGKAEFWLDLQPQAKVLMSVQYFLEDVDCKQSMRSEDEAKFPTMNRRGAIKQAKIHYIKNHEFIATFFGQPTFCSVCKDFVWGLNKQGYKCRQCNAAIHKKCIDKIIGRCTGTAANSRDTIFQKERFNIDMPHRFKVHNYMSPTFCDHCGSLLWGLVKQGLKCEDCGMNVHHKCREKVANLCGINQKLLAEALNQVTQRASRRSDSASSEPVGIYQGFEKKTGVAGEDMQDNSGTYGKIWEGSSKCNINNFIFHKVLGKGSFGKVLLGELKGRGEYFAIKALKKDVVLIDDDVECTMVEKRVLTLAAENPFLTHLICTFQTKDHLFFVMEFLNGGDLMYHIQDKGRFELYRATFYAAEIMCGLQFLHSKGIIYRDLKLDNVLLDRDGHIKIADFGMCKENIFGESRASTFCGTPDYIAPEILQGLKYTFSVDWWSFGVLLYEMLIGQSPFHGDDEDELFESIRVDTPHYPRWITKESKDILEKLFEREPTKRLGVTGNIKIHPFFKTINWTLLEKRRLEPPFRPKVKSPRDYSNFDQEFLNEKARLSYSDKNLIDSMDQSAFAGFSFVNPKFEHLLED

NTRK1 (human) = NTRK1 (human) (UniProt P04629)
ALK (human) = ALK (human) (UniProt Q9UM73)
PLK2 (human) = PLK2 (human) (UniProt Q9NYY3)
NEK7 (human) = NEK7 (human) (UniProt Q8TDX7)
EPHA3 (human) = EPHA3 (human) (UniProt P29320)

JAK3 JH1 JH2 (human), sequence (P52333 whole entry, looked up): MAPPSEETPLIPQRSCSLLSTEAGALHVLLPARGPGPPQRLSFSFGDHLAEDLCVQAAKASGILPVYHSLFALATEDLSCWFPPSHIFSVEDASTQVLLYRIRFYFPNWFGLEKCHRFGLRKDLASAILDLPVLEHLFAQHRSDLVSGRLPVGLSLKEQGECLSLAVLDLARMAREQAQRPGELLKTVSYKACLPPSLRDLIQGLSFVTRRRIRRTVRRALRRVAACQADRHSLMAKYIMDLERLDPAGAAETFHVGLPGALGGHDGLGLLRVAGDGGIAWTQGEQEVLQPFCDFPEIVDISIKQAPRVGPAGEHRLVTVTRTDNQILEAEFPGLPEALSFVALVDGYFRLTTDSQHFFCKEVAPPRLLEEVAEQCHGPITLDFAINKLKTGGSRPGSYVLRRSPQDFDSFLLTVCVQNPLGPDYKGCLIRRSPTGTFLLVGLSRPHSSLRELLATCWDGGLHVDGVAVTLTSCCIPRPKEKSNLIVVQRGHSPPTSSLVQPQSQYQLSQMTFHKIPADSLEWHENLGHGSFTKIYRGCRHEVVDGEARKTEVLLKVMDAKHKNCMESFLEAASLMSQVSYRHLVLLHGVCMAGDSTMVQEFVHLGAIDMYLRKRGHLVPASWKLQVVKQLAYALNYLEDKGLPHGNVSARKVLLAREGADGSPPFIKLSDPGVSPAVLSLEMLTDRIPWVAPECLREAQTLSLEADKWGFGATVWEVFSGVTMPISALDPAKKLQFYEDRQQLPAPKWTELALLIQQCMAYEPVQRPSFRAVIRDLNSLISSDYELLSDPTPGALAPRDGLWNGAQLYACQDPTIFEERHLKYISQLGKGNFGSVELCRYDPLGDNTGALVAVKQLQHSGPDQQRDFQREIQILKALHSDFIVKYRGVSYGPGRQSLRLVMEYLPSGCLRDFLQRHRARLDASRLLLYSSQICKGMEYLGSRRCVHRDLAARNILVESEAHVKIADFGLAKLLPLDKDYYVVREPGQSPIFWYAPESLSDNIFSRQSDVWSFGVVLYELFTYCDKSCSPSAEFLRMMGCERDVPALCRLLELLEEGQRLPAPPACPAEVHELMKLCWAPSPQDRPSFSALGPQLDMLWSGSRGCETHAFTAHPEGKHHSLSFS

Structure (SMILES): CC[C@H](C)n1cc(C)c2c(C(=O)NCc3c(C)cc(C)[nH]c3=O)cc(-c3ccc(N4CCNCC4)nc3)cc21
- residual activity (IRAK1 (human)): 97%
- residual activity (IKBKE (human)): 94.5%
- residual activity (MYLK (human)): 96%
- residual activity (JAK3 JH1 JH2 (human)): 95.5%
- residual activity (DYRK3 (human)): 96.5%
- residual activity (STK4 (human)): 97%
- residual activity (STK25 (human)): 93%
- residual activity (PRKCA (human)): 106%
- residual activity (EGFR (human)): 96.5%
- residual activity (PAK6 (human)): 102%
- residual activity (EPHA5 (human)): 77%
- residual activity (GSK3B (human)): 96%
- residual activity (NEK6 (human)): 95.5%
- residual activity (SRPK2 (human)): 98.5%
- residual activity (PAK7 (human)): 102%
- residual activity (MAP3K10 (human)): 103%
- residual activity (GSG2 (human)): 98%
- residual activity (LIMK1 (human)): 99.5%
- residual activity (EPHA6 (human)): 90%
- residual activity (TEC (human)): 81.5%
- residual activity (ACVR1B (human)): 98.5%
- residual activity (YES1 (human)): 78.5%
- residual activity (EPHA8 (human)): 89%
- residual activity (PLK1 (human)): 98.5%
- residual activity (RPS6KB2 (human)): 92%
- residual activity (HIPK4 (human)): 88%
- residual activity (CLK3 (human)): 86%
- residual activity (PRKCH (human)): 103%
- residual activity (IGF1R (human)): 96.5%
- residual activity (TTK (human)): 102%
- residual activity (MAP2K6 (human)): 94.5%
- residual activity (TXK (human)): 85.5%
- residual activity (RPS6KA1 KD1 KD2 (human)): 76%
- residual activity (TYRO3 (human)): 94.5%
- residual activity (HCK (human)): 101%
- residual activity (NEK3 (human)): 107%
- residual activity (ROCK2 (human)): 98.5%
- residual activity (STK16 (human)): 102%
- residual activity (PRKCD (human)): 102%
- residual activity (NTRK1 (human)): 106%
- residual activity (ALK (human)): 91.5%
- residual activity (PLK2 (human)): 93.5%
- residual activity (NEK7 (human)): 99.5%
- residual activity (EPHA3 (human)): 98%
